# Measurements: US7897627B2, “Heteroaryl derivatives as orexin receptor antagonists” (Hoffmann-La Roche Inc., priority 2007, dated 2011)
# Target: T1, human orexin-2 (hOX2) receptor (Homo sapiens, UniProt O43614)
# T1 construct: expressed in transfected cells
# T1 sequence (O43614 1-444): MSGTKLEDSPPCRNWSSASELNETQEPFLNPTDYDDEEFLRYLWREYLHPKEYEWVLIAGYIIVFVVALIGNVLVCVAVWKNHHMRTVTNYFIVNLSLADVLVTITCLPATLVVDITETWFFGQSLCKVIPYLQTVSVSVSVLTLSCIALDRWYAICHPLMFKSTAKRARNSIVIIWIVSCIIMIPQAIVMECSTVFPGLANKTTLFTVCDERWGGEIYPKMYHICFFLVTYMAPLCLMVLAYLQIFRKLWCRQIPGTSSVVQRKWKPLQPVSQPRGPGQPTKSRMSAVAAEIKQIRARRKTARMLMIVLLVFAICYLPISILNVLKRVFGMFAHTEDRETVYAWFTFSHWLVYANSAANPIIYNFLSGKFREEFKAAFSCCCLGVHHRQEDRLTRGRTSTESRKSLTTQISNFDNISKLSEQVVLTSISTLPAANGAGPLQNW
# Test: Intracellular Ca2+ mobilization assay (FLIPR), CHO(dHFr-) cells expressing hOX2, orexin-A as agonist
# Assay type: cell-based
# Settings: antagonist Kb=IC50/(1+[A]/EC50); orexin-A at EC80; CHO(dHFr-)-OX2R cells; antagonist applied 25 min before agonist
# Procedure: Intracellular Ca^2+ Mobilization Assay
# The Chinese Hamster Ovary (dHFr-) mutant cell line stably expressing human orexin-1 (hOX1) or human orexin-2 (hOX2) receptors were maintained in Dulbecco's Modified Eagle Medium (1×) with GlutaMax™1, 4500 mg/L D-Glucose and Sodium Pyruvate (Catalog No. 31966-021, Invitrogen, Carlsbad, Calif.), 5% dialyzed fetal calf serum (Catalog No. 26400-044), 100 μg/ml penicillin and 100 μg/ml streptomycin. The cells were seeded at 5×10^4 cells/well in the poly-D-lysine treated, 96-well, black/clear-bottomed plates (Catalog No. BD356640, BD Biosciences, Palo Alto, Calif.). 24 h later, the cells were loaded for 1 h at 37° C. with 4 μM Flou-4 acetoxymethyl ester (Catalog No. F-14202, Molecular Probes, Eugene, Oreg.) in FLIPR buffer (1×HBSS, 20 mM HEPES, 2.5 mM Probenecid). Hanks' Balanced Salt Solution (HBSS) (10×) (catalog No. 14065-049) and HEPES (1M) (catalog No. 15630-056) were purchased from Invitrogen, Carlsbad, Calif. Probenecid (250 mM) (catalog No. P8761) was from Sigma, Buchs, Switzerland. The cells were washed five times with FLIPR buffer to remove excess dye and intracellular calcium mobilization, [Ca^2−]i were measured using a Fluorometric Imaging Plate Reader (FLIPR-96, Molecular Devices, Menlo Park, Calif.) as described previously (Malherbe et al., Mol. Pharmacol., 64, 823-832, 2003). Orexin A (catalog No. 1455, Toris Cookson Ltd, Bristol, UK) was used as agonist. Orexin A ([…] stock solution in DMSO) was diluted in FLIPR buffer+0.1% BSA. The EC50 and EC80 values of orexin-A were measured daily from standard agonist concentration-response curves in CHO(dHFr-)-OX1R and -OX2R cell lines. All compounds were dissolved in 100% DMSO. Inhibition curves were determined by addition of 11 concentrations (0.0001-10 μM) of inhibitory compounds and using EC80 value of orexin-A as agonist (a concentration which gave 80% of max agonist response, determined daily). The antagonists were applied 25 min (incubation at 37° C.) before the application of the agonist. Responses were measured as peak increase in fluorescence minus basal, normalized to the maximal stimulatory effect induced by EC80 value of orexin-A or orexin-B. Inhibition curves were fitted according to the Hill equation: y=100/(1+(x/IC50)^nH), where nH=slope factor using Excel-fit 4 software (Microsoft).
# Kb values were calculated according to the following equation Kb=IC50/(1+[A]/EC50) where A is the concentration of agonist added which is very close to agonist EC80 value, and IC50 and EC50 values were derived from the antagonist inhibition and orexin-A or B agonist curves, respectively.
row,Compound,Kb
1,"Cc1onc(-c2ccccc2)c1C(=O)N1CC[C@@H](Nc2nc3ccc(F)c(F)c3o2)C1 [Example 151, [(R)-3-(6,7-Difluoro-benzooxazol-2-ylamino)-pyrrolidin-1-yl]-(5-methyl-3-phenyl-isoxazol-4-yl)-methanone]",0.0355 µM
2,"O=C(c1ccccc1OC(F)(F)C(F)F)N1CC[C@@H](Nc2nc3ccc(F)cc3o2)C1 [Example 158, [(R)-3-(6-Fluoro-benzooxazol-2-ylamino)-pyrrolidin-1-yl]-[2-(1,1,2,2-tetrafluoro-ethoxy)-phenyl]-methanone]",0.0039 µM
3,"COc1cccc(OC)c1C(=O)N1CC[C@@H](Nc2nc3cccc(F)c3s2)C1 [Example 100, (2,6-Dimethoxy-phenyl)-[(R)-3-(7-fluoro-benzothiazol-2-ylamino)-pyrrolidin-1-yl]-methanone]",0.01 µM
4,"COc1cccc(OC)c1C(=O)N1CC[C@@H](Nc2nc3c(C)cccc3o2)C1 [Example 106, (2,6-Dimethoxy-phenyl)-[(R)-3-(4-methyl-benzooxazol-2-ylamino)-pyrrolidin-1-yl]-methanone]",0.0129 µM
5,Cc1ccc(C(F)(F)F)c(C(=O)N2CC[C@@H](Nc3cnc4cc(Cl)c(C)cc4n3)C2)c1 [Example 213],0.0371 µM
6,"O=C(c1ccccc1OC(F)(F)F)N1CC[C@@H](Nc2cnc3ccccc3n2)C1 [Example 183, [(R)-3-(Quinoxalin-2-ylamino)-pyrrolidin-1-yl]-(2-trifluoromethoxy-phenyl)-methanone]",0.02 µM
7,Cc1ccc(C(F)(F)F)c(C(=O)N2CC[C@@H](Nc3cnc4cc(C(C)(C)C)ccc4n3)C2)c1 [Example 204],0.0052 µM
8,"O=C(c1c(F)cccc1C(F)(F)F)N1CC[C@@H](Nc2nc3ccc(Cl)cc3o2)C1 [Example 72, [(R)-3-(6-Chloro-benzooxazol-2-ylamino)-pyrrolidin-1-yl]-(2-fluoro-6-trifluoromethyl-phenyl)-methanone]",0.0298 µM
9,"O=C(c1ccccc1OC(F)(F)C(F)F)N1CC[C@@H](Nc2nc3ccc(F)c(F)c3o2)C1 [Example 149, [(R)-3-(6,7-Difluoro-benzooxazol-2-ylamino)-pyrrolidin-1-yl]-[2-(1,1,2,2-tetrafluoro-ethoxy)-phenyl]-methanone]",0.0072 µM
10,"Cc1nc(C(=O)N2CC[C@@H](Nc3nc4ccc(F)cc4o3)C2)c(-c2ccccc2)s1 [Example 164, [(R)-3-(6-Fluoro-benzooxazol-2-ylamino)-pyrrolidin-1-yl]-(2-methyl-5-phenyl-thiazol-4-yl)-methanone]",0.047 µM
11,"COc1cccc(OC)c1C(=O)N1CCC(Nc2nc3ccc(Cl)cc3o2)C1 (centres unmarked) [Example 1, [3-(6-Chloro-benzooxazol-2-ylamino)-pyrrolidin-1-yl]-(2,6-dimethoxy-phenyl)-methanone]",0.0279 µM
12,"Cc1ccc(C(F)(F)F)c(C(=O)N2CC[C@@H](Nc3cnc4ccccc4n3)C2)c1 [Example 185, (5-Methyl-2-trifluoromethyl-phenyl)-[(R)-3-(quinoxalin-2-ylamino)-pyrrolidin-1-yl]-methanone]",0.0075 µM
13,"O=C(c1ccccc1OC(F)(F)C(F)F)N1CC[C@@H](Nc2cnc3cc(F)c(F)cc3n2)C1 [Example 167, [(R)-3-(6,7-Difluoro-quinoxalin-2-ylamino)-pyrrolidin-1-yl]-[2-(1,1,2,2-tetrafluoro-ethoxy)-phenyl]-methanone]",0.001 µM
14,Cc1ccc(C(F)(F)F)c(C(=O)N2CC[C@@H](Nc3cnc4cc(C)c(Cl)cc4n3)C2)c1 [Example 212],0.0086 µM
15,"Cc1nc(-c2ccccc2)c(C(=O)N2CC[C@@H](Nc3nc4ccc(Cl)cc4o3)C2)s1 [Example 78, [(R)-3-(6-Chloro-benzooxazol-2-ylamino)-pyrrolidin-1-yl]-(2-methyl-4-phenyl-thiazol-5-yl)-methanone]",0.0145 µM
16,"O=C(c1ccccc1OC(F)(F)F)N1CC[C@@H](Nc2nc3ccc(F)cc3o2)C1 [Example 157, [(R)-3-(6-Fluoro-benzooxazol-2-ylamino)-pyrrolidin-1-yl]-(2-trifluoromethoxy-phenyl)-methanone]",0.0247 µM
17,"COc1cccc(OC)c1C(=O)N1CCC(Nc2cnc3ccccc3n2)C1 (centres unmarked) [Example 6, (2,6-Dimethoxy-phenyl)-[3-(quinoxalin-2-ylamino)-pyrrolidin-1-yl]-methanone]",0.0104 µM
18,"O=C(c1ccccc1OC(F)(F)F)N1CC[C@@H](Nc2cnc3cc(F)c(F)cc3n2)C1 [Example 166, [(R)-3-(6,7-Difluoro-quinoxalin-2-ylamino)-pyrrolidin-1-yl]-(2-trifluoromethoxy-phenyl)-methanone]",0.009 µM
19,"O=C(c1ccccc1OC(F)(F)C(F)F)N1CC[C@@H](Nc2cnc3cc(Cl)ccc3n2)C1 [Example 175, [(R)-3-(6-Chloro-quinoxalin-2-ylamino)-pyrrolidin-1-yl]-[2-(1,1,2,2-tetrafluoro-ethoxy)-phenyl]-methanone]",0.0187 µM
20,"O=C(c1ccccc1-c1ccco1)N1CC[C@@H](Nc2nc3ccc(Cl)cc3o2)C1 [Example 57, [(R)-3-(6-Chloro-benzooxazol-2-ylamino)-pyrrolidin-1-yl]-(2-furan-2-yl-phenyl)-methanone]",0.0025 µM
21,"Cc1ccc(C(F)(F)F)c(C(=O)N2CC[C@@H](Nc3nc4cc(F)c(F)cc4s3)C2)c1 [Example 202, [(R)-3-(5,6-Difluoro-benzothiazol-2-ylamino)-pyrrolidin-1-yl]-(5-methyl-2-trifluoromethyl-phenyl)-methanone]",0.0046 µM
22,"COc1cccc(OC)c1C(=O)N1CC[C@@H](Nc2nc3ccc(Cl)cc3o2)C1 [Example 5, [(R)-3-(6-Chloro-benzooxazol-2-ylamino)-pyrrolidin-1-yl]-(2,6-dimethoxy-phenyl)-methanone]",0.0242 µM
23,"COc1cccc(OC)c1C(=O)N1CC[C@@H](Nc2cnc3ccccc3n2)C1 [Example 24, (2,6-Dimethoxy-phenyl)-[(R)-3-(quinoxalin-2-ylamino)-pyrrolidin-1-yl]-methanone]",0.0415 µM
24,"O=C(c1ccccc1OC(F)(F)F)N1CC[C@@H](Nc2nc3c(F)cccc3s2)C1 [Example 122, [(R)-3-(4-Fluoro-benzothiazol-2-ylamino)-pyrrolidin-1-yl]-(2-trifluoromethoxy-phenyl)-methanone]",0.0193 µM
25,"COc1cccc(OC)c1C(=O)N1CC[C@@H](Nc2nc3c(Cl)cccc3s2)C1 [Example 43, [(R)-3-(4-Chloro-benzothiazol-2-ylamino)-pyrrolidin-1-yl]-(2,6-dimethoxy-phenyl)-methanone]",0.0015 µM
26,"O=C(c1ccccc1OC(F)(F)C(F)F)N1CC[C@@H](Nc2cnc3ccc(Cl)cc3n2)C1 [Example 192, [(R)-3-(7-Chloro-quinoxalin-2-ylamino)-pyrrolidin-1-yl]-[2-(1,1,2,2-tetrafluoro-ethoxy)-phenyl]-methanone]",0.0324 µM
27,"O=C(c1ccccc1-c1cccs1)N1CC[C@@H](Nc2nc3ccc(Cl)cc3o2)C1 [Example 70, [(R)-3-(6-Chloro-benzooxazol-2-ylamino)-pyrrolidin-1-yl]-(2-thiophen-2-yl-phenyl)-methanone]",0.0024 µM
28,"COc1cccc(OC)c1C(=O)N1CC[C@@H](Nc2nc3ccc(F)c(F)c3o2)C1 [Example 93, [(R)-3-(6,7-Difluoro-benzooxazol-2-ylamino)-pyrrolidin-1-yl]-(2,6-dimethoxy-phenyl)-methanone]",0.0164 µM
29,"COc1ccc(C)cc1C(=O)N1CC[C@@H](Nc2cnc3cc(F)c(F)cc3n2)C1 [Example 171, [(R)-3-(6,7-Difluoro-quinoxalin-2-ylamino)-pyrrolidin-1-yl]-(2-methoxy-5-methyl-phenyl)-methanone]",0.0245 µM
